# Laboratory results as given in ChEMBL document CHEMBL1201862, “PubChem BioAssay data set” (2004).
# Active and inactive are the calls of the source.
# What was measured:
# [1] = viability of HCT116 lacking mutant beta-catenin – cell-based, human colon tumor, dose response (AID 1045); type: functional;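 note: HCT116 colon tumor cells with beta catenin knocked out; cells exposed to compound for 60 hours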
# [2] = viability of PTEN-deleted HCT116 cells – cell-based, HCT116 PTEN knockout, dose response (AID 1047); type: functional;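 note: HCT116 colon tumor cells with PTEN knocked out; cells exposed to compound for 60 hours before readout; potency for loss of cell viability measured by luminescence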
# [3] = target: Cytochrome P450 3A4 (Homo sapiens, UniProt P08684);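 note: CYP3A4 tested as one member of a cytochrome P450 panel screen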
# Chain of Cytochrome P450 3A4 (P08684 whole entry): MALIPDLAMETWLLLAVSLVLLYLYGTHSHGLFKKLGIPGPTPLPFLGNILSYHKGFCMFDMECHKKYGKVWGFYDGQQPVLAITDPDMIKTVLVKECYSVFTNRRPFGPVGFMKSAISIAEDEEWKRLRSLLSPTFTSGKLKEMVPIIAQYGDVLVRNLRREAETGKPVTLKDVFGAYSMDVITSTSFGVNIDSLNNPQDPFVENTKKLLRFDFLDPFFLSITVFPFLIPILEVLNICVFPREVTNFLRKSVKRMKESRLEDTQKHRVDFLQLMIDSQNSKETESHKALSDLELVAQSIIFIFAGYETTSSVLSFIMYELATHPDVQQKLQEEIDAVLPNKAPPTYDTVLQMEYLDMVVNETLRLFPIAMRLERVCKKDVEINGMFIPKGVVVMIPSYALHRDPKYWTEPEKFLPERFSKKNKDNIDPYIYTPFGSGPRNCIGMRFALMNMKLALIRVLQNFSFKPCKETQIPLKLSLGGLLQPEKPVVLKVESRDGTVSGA
# [4] = target: Cytochrome P450 2C19 (Homo sapiens, UniProt P33261); assay: Cytochrome panel assay with activity outcomes. Panel member name: p450-cyp2c19 Compounds with AC50 equal or less than 10 uM are considered active; type: functional; conditions: read-out: AC50
# Chain of Cytochrome P450 2C19 (P33261 whole entry, the tested form may be a part): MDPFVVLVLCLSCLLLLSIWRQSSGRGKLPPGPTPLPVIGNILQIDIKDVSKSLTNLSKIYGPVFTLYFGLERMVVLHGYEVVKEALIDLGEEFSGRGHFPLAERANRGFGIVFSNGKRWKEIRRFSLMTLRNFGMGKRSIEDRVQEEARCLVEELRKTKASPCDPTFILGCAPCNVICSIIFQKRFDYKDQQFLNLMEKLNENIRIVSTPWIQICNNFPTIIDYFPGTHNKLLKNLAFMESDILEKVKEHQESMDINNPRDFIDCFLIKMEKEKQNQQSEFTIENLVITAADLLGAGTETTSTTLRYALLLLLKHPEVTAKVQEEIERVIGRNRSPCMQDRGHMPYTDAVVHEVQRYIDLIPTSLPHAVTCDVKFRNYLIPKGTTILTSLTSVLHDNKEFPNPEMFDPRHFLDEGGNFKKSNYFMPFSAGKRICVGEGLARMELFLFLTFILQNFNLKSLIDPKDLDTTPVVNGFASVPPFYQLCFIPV
# [5] = HIV-1 AD8 envelope cell-cell fusion blockers – cherry-pick, dose response (AID 652062); type: functional, cell-based;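 note: luciferase signal from cell-cell fusion driven by HIV-1 clade B AD8 Env; potency is for inhibitors of fusion seen as a drop in luminescence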
# [6] = fluconazole-exposed Candida albicans growth modulators – fluorescence, retest, confirmation (AID 2467); type: functional, cell-based
# [7] = NIH-3T3 fibroblast cytotoxicity, dose response, cytotoxicity control, cell-based, fluorescence, Alamar Blue, secondary assay (AID 2327); type: functional;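 note: NIH-3T3 mouse fibroblasts cultured with fluconazole at 8 µg/mL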
# [8] = target: Cytochrome P450 2C9 (Homo sapiens, UniProt P11712)
# Chain of Cytochrome P450 2C9 (P11712 whole entry): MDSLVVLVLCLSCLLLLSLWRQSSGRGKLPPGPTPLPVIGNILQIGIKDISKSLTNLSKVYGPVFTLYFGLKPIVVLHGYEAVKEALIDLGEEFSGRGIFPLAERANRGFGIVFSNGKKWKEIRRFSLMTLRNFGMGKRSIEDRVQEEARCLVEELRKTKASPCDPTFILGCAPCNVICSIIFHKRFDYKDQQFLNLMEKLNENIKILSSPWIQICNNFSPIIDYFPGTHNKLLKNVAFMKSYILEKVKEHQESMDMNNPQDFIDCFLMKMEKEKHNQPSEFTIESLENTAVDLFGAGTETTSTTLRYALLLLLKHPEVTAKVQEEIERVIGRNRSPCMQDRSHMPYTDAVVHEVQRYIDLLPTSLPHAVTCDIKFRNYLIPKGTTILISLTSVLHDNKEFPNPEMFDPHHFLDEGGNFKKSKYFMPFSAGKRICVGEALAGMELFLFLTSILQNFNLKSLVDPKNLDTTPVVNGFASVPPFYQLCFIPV
# [9] = target: Luciferin 4-monooxygenase (Photinus pyralis, UniProt P08659); assay: inhibition of purified Photinus pyralis luciferase – biochemical, luminescence, dose response (AID 1891)
# Chain of Luciferin 4-monooxygenase (P08659 whole entry): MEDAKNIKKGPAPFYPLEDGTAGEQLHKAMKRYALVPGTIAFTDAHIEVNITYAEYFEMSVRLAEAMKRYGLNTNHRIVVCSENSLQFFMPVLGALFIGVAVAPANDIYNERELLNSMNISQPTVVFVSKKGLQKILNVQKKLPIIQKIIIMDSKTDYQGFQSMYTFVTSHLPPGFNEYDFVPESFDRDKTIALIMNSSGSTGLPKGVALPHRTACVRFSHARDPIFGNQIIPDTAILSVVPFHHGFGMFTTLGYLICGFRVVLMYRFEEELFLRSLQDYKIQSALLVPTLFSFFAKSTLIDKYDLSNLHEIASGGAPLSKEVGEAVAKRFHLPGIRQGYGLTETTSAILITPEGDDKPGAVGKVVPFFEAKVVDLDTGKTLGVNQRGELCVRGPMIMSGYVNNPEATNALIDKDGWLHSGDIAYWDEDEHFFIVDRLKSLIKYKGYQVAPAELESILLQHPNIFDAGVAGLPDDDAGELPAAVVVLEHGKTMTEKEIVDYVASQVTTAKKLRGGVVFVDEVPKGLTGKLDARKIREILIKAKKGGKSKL
# [10] = Luminescence Cell-Based Dose Confirmation HTS to Identify Inhibitors of Platelet Dense Granule Release. [Related pubchem assays: 1663 (Primary HTS), 1678 (Summary of Project)]; type: functional
# [11] = target: Cytochrome P450 2D6 (Homo sapiens, UniProt P10635);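 note: CYP2D6 member of a cytochrome P450 panel assay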
# Chain of Cytochrome P450 2D6 (P10635 whole entry): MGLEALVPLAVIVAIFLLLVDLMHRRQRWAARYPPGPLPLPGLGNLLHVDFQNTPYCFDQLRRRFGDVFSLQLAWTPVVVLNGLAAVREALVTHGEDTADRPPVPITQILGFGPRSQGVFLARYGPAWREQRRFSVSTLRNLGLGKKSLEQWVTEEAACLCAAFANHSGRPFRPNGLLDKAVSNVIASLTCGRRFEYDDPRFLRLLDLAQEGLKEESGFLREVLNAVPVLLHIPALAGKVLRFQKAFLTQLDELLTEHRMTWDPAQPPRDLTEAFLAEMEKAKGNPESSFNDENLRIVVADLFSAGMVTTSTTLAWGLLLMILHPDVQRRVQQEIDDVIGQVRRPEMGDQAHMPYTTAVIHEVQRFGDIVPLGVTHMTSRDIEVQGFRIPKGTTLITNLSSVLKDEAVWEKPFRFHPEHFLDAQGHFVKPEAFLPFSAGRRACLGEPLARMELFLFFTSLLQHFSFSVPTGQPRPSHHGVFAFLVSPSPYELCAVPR
# [12] = Luminescence Cell-Based Dose Response HTS to Identify Inhibitors of 5'UTR Stem-Loop Driven Prion Protein mRNA Translation in H4 Neuroglioblastoma Cells. [Related pubchem assays: 1827 (Project Summary), 1813 (Primary HTS)]; type: functional
# [13] = target: T1, Streptokinase A (Streptococcus pyogenes serotype M1, UniProt P10520); assay: viability-normalized secreted streptokinase activity reduction – plasminogen activation absorbance, OD405, dose response (AID 1914); type: functional, Streptococcus pyogenes M1 GAS;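 note: secreted streptokinase activity via plasminogen activation per viability signal from cell pellet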
# T1 sequence (P10520 whole entry): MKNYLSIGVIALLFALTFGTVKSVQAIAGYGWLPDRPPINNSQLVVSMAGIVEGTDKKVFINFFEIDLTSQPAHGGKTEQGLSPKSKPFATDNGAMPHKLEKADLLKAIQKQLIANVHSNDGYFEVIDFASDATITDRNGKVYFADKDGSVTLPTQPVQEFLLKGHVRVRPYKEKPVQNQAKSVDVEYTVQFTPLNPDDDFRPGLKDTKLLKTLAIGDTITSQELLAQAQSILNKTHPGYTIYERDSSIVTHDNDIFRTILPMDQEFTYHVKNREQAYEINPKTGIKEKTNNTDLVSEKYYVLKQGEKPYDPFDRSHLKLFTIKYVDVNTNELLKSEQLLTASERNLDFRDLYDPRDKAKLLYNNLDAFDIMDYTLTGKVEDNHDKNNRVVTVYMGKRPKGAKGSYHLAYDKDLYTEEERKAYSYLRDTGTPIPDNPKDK
# [14] = DRD fibroblast viability loss – cell-based, non-viral oncogenic, luminescence, dose response (AID 1934); type: functional; conditions: Homo sapiens
# [15] = test system: Streptococcus; assay: GAS UMAA2166 growth inhibition – luminescence, BacTiterGlo, counter-screen for streptokinase expression inhibitor project, dose response (AID 1915); type: functional, organism-based;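 note: potency for reduction of bacterial viability or growth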
# [16] = test system: BJ; assay: cells; type: functional, cell-based; conditions: Homo sapiens
# [17] = test system: BJ; assay: BJ-TERT-LT-ST fibroblast viability loss – cell-based, RAS-independent, luminescence, dose response (AID 1935); type: functional; conditions: Homo sapiens;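 note: BJ fibroblasts immortalized with TERT plus LT and ST oncogenes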
# [18] = test system: BJ; assay: BJ-TERT fibroblast viability loss – cell-based, RAS-independent, luminescence, dose response (AID 1933); type: functional; conditions: Homo sapiens
# [19] = luciferase reporter signal suppression in cells – H4 neuroglioma cells, luminescence, dose response (AID 1990); type: functional, cell-based
# [20] = alpha-synuclein stem-loop luciferase translation blockers – H4 neuroglioma cells, luminescence, confirmation (AID 1988); type: functional, cell-based
# [21] = test system: Streptococcus sp. 'group A'; assay: Streptococcus pyogenes SK(-)GAS viability under kanamycin – luminescence, BacTiterGlo, confirmation, counter-screen for streptokinase expression inhibitor project, dose response (AID 1900); type: functional, organism-based
# [22] = Trypanosoma cruzi growth suppression in host cells – NIH3T3 host cells, beta-gal luminescence, confirmation (AID 2044); type: functional, cell-based;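 note: intracellular parasites grown in NIH/3T3 mouse fibroblasts as host cells; luminescent beta-galactosidase reporter signal from transgenic T. cruzi replicating inside host cells; inhibitors lower the luminescence signal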
# [23] = NIH3T3 cell viability loss – ATP luminescence, mouse fibroblasts, counter-screen, dose response (AID 2010); type: functional, cell-based;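 note: cells exposed to compound for about 90 hours before reading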
# [24] = target: T2, Leucine aminopeptidase (Plasmodium falciparum 3D7, UniProt Q8IL11); assay: P. falciparum M17LAP inhibitors, primary screen, biochemical, fluorogenic H-Leu-NHMec substrate, 1536-well (AID 1619); type: functional
# T2 sequence (Q8IL11 whole entry): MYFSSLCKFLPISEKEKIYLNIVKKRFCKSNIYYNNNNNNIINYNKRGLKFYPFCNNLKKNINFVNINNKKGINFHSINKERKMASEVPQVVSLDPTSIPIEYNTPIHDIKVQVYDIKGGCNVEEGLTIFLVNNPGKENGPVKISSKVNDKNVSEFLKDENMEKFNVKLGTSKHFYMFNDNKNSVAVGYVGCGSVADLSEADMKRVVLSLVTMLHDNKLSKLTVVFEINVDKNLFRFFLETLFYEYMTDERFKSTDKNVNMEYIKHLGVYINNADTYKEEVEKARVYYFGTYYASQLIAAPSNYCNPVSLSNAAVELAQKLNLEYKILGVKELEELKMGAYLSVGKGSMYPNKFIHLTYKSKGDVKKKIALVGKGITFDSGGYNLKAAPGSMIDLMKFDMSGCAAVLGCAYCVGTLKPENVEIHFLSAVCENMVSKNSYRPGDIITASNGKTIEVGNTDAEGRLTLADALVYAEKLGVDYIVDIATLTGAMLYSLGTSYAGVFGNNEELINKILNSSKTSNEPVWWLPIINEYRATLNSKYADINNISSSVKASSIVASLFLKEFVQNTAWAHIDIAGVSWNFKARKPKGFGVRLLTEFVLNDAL
# [25] = target: Paired box protein Pax-8 (Homo sapiens, UniProt Q06710); assay: PAX8 transcriptional activity inhibition in RMG-I – RMG-I cells, luciferase, cherry-pick, dose response (AID 687027); type: functional, cell-based;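 note: luciferase reporter driven by Pax8 target thyroperoxidase promoter measured by SteadyGlo luminescence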
# Chain of Paired box protein Pax-8 (Q06710 whole entry): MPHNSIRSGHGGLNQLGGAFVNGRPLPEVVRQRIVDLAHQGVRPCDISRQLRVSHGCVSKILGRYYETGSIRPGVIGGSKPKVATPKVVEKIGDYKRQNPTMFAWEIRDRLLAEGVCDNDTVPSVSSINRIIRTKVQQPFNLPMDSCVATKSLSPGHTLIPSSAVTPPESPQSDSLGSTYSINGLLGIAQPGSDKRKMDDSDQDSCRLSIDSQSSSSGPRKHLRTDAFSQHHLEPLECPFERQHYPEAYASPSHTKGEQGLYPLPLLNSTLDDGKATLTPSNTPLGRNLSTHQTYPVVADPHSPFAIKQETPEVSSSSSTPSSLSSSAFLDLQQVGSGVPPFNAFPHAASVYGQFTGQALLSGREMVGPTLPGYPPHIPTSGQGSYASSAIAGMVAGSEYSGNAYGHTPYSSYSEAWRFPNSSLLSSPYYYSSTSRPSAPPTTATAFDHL
# [26] = Luminescence Cell-Based Dose Retest to Confirm Inhibitors of Cancer Stem Cells. [Related pubchem assays (depositor defined):AID2717, AID2721]; type: functional; conditions: Homo sapiens
# [27] = target: FAD-linked sulfhydryl oxidase ALR (Homo sapiens, UniProt P55789); assay: ALR-catalysed DTT oxidation blockers – biochemical, H2O2 detection, luminescence, cherry-pick, dose response (AID 493248)
# Chain of FAD-linked sulfhydryl oxidase ALR (P55789 whole entry): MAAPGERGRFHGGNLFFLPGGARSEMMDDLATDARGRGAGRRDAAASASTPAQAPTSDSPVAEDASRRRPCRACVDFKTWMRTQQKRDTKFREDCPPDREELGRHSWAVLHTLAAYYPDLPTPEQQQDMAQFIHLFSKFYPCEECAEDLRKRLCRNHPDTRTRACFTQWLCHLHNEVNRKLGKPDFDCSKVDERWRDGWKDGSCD
smiles,measurement,setting,value
S=C(Nc1ccccn1)c1ccccn1,EC50,[1],5.37 µM (active)
same,EC50,[2],5.48 µM (active)
C[C@H](NC[C@H](O)CP(=O)(O)CC1CCCCC1)c1ccc(Cl)c(Cl)c1,AC50,[3],31.6 µM (inconclusive)
C[C@@H]1CCCN(CP(=O)(c2ccccc2)c2ccccc2)C1,AC50,[4],0.126 µM (inconclusive)
same,AC50,[3],3.98 µM (inconclusive)
Cc1ccc(-n2nnnc2SCn2nnc3ccccc3c2=O)c(C)c1,AC50,[5],30.1 µM (active)
COC(=O)[C@H]1C[C@@H]1[C@H](NC(=O)OCc1ccccc1)c1ccccc1,AC50,[3],25.1 µM (inconclusive)
Cn1c(=O)c(C(=O)NCCc2ccccc2)c(O)c2ccccc21,EC50,[6],> 38 µM (not active)
same,EC50,[7],> 150 µM (inactive)
COC(=O)N1CCC[C@@]2(CCN(C(=O)Nc3ccc(OC)cc3)C2)C1,AC50,[3],10 µM (inconclusive)
same,AC50,[8],20 µM (inconclusive)
CCn1c(O)c(N=NC(=O)c2ccc(CSc3nncn3C)cc2)c2ccccc21,EC50,[9],> 112 µM (not active)
same,EC50,[10],> 112 µM (not active)
O=C(c1ccncc1)N1CCC[C@@]2(CCN(c3ncccn3)C2)C1,AC50,[4],25.1 µM (inconclusive)
same,AC50,[3],15.8 µM (inconclusive)
same,AC50,[8],20 µM (inconclusive)
CCCCCCN1C=CC(=C/C=C(\C#N)C(=O)OCC)C=C1,AC50,[11],14.1 µM (inconclusive)
same,AC50,[3],15.8 µM (inconclusive)
CSc1nc(Oc2ccc3ccccc3c2)c2sccc2n1,EC50,[12],> 120 µM (not active)
same,EC50,[13],39.1 µM (active)
same,EC50,[14],12.8 µM (inconclusive)
same,EC50,[15],> 150 µM (not active)
same,EC50,[16],52.3 µM (active)
same,EC50,[17],13.6 µM (inconclusive)
same,EC50,[18],12.5 µM (active)
same,EC50,[19],12.9 µM (active)
same,EC50,[20],8.16 µM (active)
same,EC50,[21],34.3 µM (active)
O=C(c1ccccc1)c1ccc(NCCCn2ccnc2)c([N+](=O)[O-])c1,EC50,[22],1.8 µM (active)
same,EC50,[14],147 µM (active)
same,EC50,[23],> 60 µM (not active)
same,EC50,[16],> 150 µM (not active)
same,EC50,[17],> 150 µM (inconclusive)
same,EC50,[18],> 150 µM (not active)
CCC(CC)C(=O)Nc1ccc(C)c(O)c1,AC50,[3],4.47 µM (inconclusive)
CCn1c2ccccc2c2cc(NC(=O)CNCc3ccccc3OC)ccc21,EC50,[14],4.21 µM (active)
same,EC50,[16],> 150 µM (inconclusive)
same,EC50,[17],41.6 µM (inconclusive)
same,EC50,[18],7.54 µM (inconclusive)
Cc1cccc(C)c1Nc1nnc(SC(C)C(=O)Nc2c(C)n(C)n(-c3ccccc3)c2=O)s1 (configuration not stated),IC50,[24],13.5 µM (active)
COc1ccc(-c2cc(-c3ccccc3)c(C#N)c(S(C)(=O)=O)n2)cc1,EC50,[1],5.07 µM (active)
same,AC50,[25],6.98 µM (active)
same,EC50,[2],7.91 µM (active)
CCOc1cc(CNCCO)cc(Br)c1OCc1ccc(Cl)cc1Cl,EC50,[1],4.69 µM (active)
same,AC50,[26],6.75 µM (active)
same,EC50,[2],4.89 µM (active)
C=CCn1c(=S)[nH]c2sc3c(c2c1=O)CCC3,IC50,[24],46.2 µM (active)
O=C(O)c1cccc(CN2C(=O)SC(Nc3ccccc3)C2=O)c1 (configuration not stated),IC50,[24],34.3 µM (active)
Cc1noc(C)c1C(=O)N1CCC2(CCCN(Cc3ccccc3)C2)CC1,AC50,[3],25.1 µM (inconclusive)
Cc1cccc(NC(=O)Cn2cnc3c(cnn3-c3ccc(F)cc3)c2=O)c1C,EC50,[1],14.2 µM (active)
same,EC50,[2],6.93 µM (active)
Cc1ccc(C(=O)/C=C/c2c[nH]c3ccccc23)cc1,AC50,[11],22.4 µM (inconclusive)
same,AC50,[3],25.1 µM (inconclusive)
c1ccc(-c2nnc(Sc3ncnc4c3cnn4-c3ccccc3)[nH]2)cc1,IC50,[24],64.8 µM (active)
CC1SCC(=O)N(CC(=O)Nc2ccc3c(c2)OCO3)C1=O (configuration not stated),IC50,[24],29.4 µM (active)
CN(NC(=O)c1ccccc1)c1nc2ccccc2nc1C(F)(F)F,EC50,[14],16.5 µM (active)
same,EC50,[16],26.9 µM (active)
same,EC50,[17],17.3 µM (active)
same,EC50,[18],18.4 µM (active)
CC(=O)c1ncnn1CC(=O)c1ccc(Cl)cc1Cl,EC50,[6],1.37 µM (active)
same,EC50,[7],21.9 µM (inconclusive)
CC(C)CN1CC[C@@]2(CCCN(C(=O)c3cnccn3)C2)C1,AC50,[3],15.8 µM (inconclusive)
CCCC(O)(CCC)C(=O)NNc1ccc(C)cc1,EC50,[6],> 38 µM (not active)
same,EC50,[7],> 160 µM (inconclusive)
CCOC(=O)c1sc(NC(=O)c2cc(-c3ccc(C)cc3)nc3ccccc23)c(C#N)c1C,EC50,[1],10.5 µM (active)
same,EC50,[2],9.45 µM (active)
O=C(CSc1ncccc1C(=O)O)NCCC1=CCCCC1,IC50,[24],29.2 µM (active)
Nc1nnc(Nc2ccc(Cl)cc2)[nH]1,AC50,[27],4.22 µM (active)
same,IC50,[24],6.6 µM (active)
COc1ccc(C(O)c2nc3ccccc3n2C)cc1OC (configuration not stated),AC50,[5],3.4 µM (active)
CO[C@@H]1/C=C\CC(=O)N[C@@H](C)C(=O)OC[C@H](NS(=O)(=O)c2ccc(C)cc2)[C@H](C)/C=C\CC(=O)OC[C@H]1C,AC50,[3],3.98 µM (inconclusive)
O=C(N/N=C/c1ccsc1)c1cc(-c2cccs2)nc2ccccc12,AC50,[25],51.8 µM (active)
O=C(N/N=C/c1ccco1)c1cc(-c2ccncc2)nc2ccccc12,EC50,[14],23.3 µM (active)
same,EC50,[16],60.7 µM (active)
same,EC50,[17],> 75 µM (not active)
same,EC50,[18],15.2 µM (active)
N#C[C@H]1[C@H](c2ccc(C#CC3CCCCC3)cc2)[C@H](CO)N1C(=O)Nc1ccc(F)cc1,AC50,[25],20.8 µM (active)
C[C@@H]1CCCCO[C@@H](CN(C)Cc2ccc(C(F)(F)F)cc2)[C@@H](C)CN([C@@H](C)CO)C(=O)c2cc(NS(=O)(=O)c3ccc(F)cc3)ccc2O1,AC50,[25],8.7 µM (active)
Cc1ccc(S(=O)(=O)N[C@@H]2C=C[C@@H](CC(=O)N3CCC(Cc4ccccc4)CC3)O[C@@H]2CO)cc1,AC50,[25],13.3 µM (active)
Cc1ccc(S(=O)(=O)Nc2ccc3c(c2)C(=O)N([C@@H](C)CO)C[C@@H](C)[C@H](CN(C)S(=O)(=O)c2ccc(Cl)cc2)OCCCC[C@@H](C)O3)cc1,AC50,[25],4.47 µM (active)
C/C(N)=C(/C#N)C(=O)COC(=O)c1cc(-c2ccc(Br)cc2)nc2ccccc12,EC50,[1],24.9 µM (active)
same,EC50,[13],4.43 µM (active)
same,EC50,[15],18.7 µM (active)
same,EC50,[2],25 µM (active)
same,EC50,[21],11.9 µM (active)
C/C(=N\NC(=O)C1CCCC1)c1ccc(Cl)c(Cl)c1,EC50,[6],> 38 µM (not active)
same,EC50,[7],> 150 µM (inactive)
